Laboratory results as given in US7994204B2, “Binding inhibitor of sphingosine-1-phosphate” (Taisho Pharmaceutical Co., Ltd, priority 2006, dated 2011).

Tests used:
human Edg-1 (S1P1) = target: T1, human Edg-1 (S1P1) (Homo sapiens, UniProt P21453); experiment: S1P1 binding inhibition test (membrane, [33P]-S1P); details: for inhibition at 10 µM: compound 10 μM, [33P]-S1P 0.1 nM, human Edg-1 (S1P1) HEK-293 membrane fraction, read-out: Binding test (membrane) % inhibition (10 μM); for IC50: membrane system binding test, various concentrations
T1 construct: expressed in transfected cells; host or cells: HEK-293
Description: The membrane fraction was obtained by treating the cells with a solubilizing buffer (1 mM Tris/HCl, pH 7.2) for 10 minutes on ice, centrifuging at 1000×g for 5 minutes to remove insoluble fractions, and then centrifuging at 40000×g for 30 minutes at 4° C. The resulting membrane fraction was dissolved in a binding buffer (20 mM Tris-HCl, pH 7.4, 100 mM NaCl, 15 mM NaF, 2 mM deoxypyridoxine, 4 mg/mL fatty acid-free BSA), and then [^33P]-S1P (manufactured by ARC, final concentration 0.1 nM) and a DMSO solution (final concentration of the compound 10^−5 M, final concentration of DMSO 0.1%) of the test compound were added. Thereafter, the mixture was stirred and then treated for one hour at 30° C. Using a harvester, the membrane fraction was harvested onto unifilter-96 GF/C filter (manufactured by Perkin Elmer), washing was carried out four times with the binding buffer, and the filter was dried. Twenty five μL Microscint 0 (manufactured by Perkin Elmer) was added, and radioactivity was measured using Top Count NXT (manufactured by Packard) to calculate the amount (A) of [^33P]-S1P bound to the membrane fraction at the time when the compound was added.
The same procedure was carried out in the absence of the test compound, and the amount (B) of [^33P]-S1P bound was calculated. Further, the same procedure was carried out in the absence of the test compound by use of HEK-293 cells to which no Edg-1 (S1P1) gene was introduced, and the background amount (C) of [^33P]-S1P bound was calculated.
Inhibition rate (%)=[1−(A−C)/(B−C)]×100.
Moreover, the concentration required for a test compound to produce 50% inhibition of the binding caused in the absence of the test compound was also calculated (IC50). The above membrane system binding test was performed in the presence of a test compound at various concentrations to calculate the inhibition rate of Edg-1(S1P1) binding at each concentration according to the above equation, followed by calculating an IC50 value for each compound with data analysis software, Origin (Lightstone Corp., Japan).

T1 sequence (P21453 whole entry): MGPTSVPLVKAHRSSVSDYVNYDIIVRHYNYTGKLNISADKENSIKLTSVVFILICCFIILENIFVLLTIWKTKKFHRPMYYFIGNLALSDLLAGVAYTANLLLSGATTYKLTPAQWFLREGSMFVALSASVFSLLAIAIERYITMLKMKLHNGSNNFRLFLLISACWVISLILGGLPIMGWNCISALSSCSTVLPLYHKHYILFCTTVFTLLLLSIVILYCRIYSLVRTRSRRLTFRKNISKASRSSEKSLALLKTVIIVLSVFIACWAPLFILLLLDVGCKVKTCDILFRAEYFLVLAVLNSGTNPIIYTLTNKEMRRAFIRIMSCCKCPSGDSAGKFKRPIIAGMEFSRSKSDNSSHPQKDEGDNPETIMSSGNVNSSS

| Structure (SMILES) | melting point | inhibition at 10 µM (human Edg-1 (S1P1)) | IC50 (human Edg-1 (S1P1)) | Kd (human Edg-1 (S1P1); human Edg-1 (S1P1) gene transferred HEK-293 membrane fraction) |
| --- | --- | --- | --- | --- |
| CCc1c(C(C)NS(=O)(=O)c2ccc3c(Cl)cccc3c2)nn(C)c1Oc1ccc(C)cc1 (stereo not shown) [Compound 181] | 154.5 to 155.5 °C | – | – | – |
| CCn1c(C(C)NS(=O)(=O)c2ccc3c(Cl)cccc3c2)nc(Cl)c1Oc1ccc(C)cc1 (stereo not shown) [Compound 182] | 137.5 to 138.5 °C | – | – | – |
| CCn1c(C(C)NS(=O)(=O)c2ccc3c(Cl)cccc3c2)cnc1Oc1ccc(F)cc1 (stereo not shown) [Compound 187] | 138 to 141 °C | 101% | ≤ 35 nM | – |
| CCn1c(Oc2ccc(F)cc2)nc(C)c1C(C)NS(=O)(=O)c1ccc(Cl)c(Cl)c1 (stereo not shown) [Compound 188, 3,4-Dichloro-N-{1-[3-ethyl-2-(4-fluorophenoxy)-5-methyl-3H-imidazol-4-yl]-ethyl}-benzenesulfonamide] | 119.5 to 120.5 °C | 100% | – | – |
| CCC(NS(=O)(=O)c1ccc2c(Cl)cccc2c1)c1cnc(Oc2ccc(F)cc2)n1CC (stereo not shown) [Compound 192] | 118 to 120 °C | 101% | 23 nM | – |
| CCn1c(C(Cc2ccccc2)NS(=O)(=O)c2ccc(Cl)c(Cl)c2)cnc1Oc1ccc(F)cc1 (stereo not shown) [Compound 193] | 114.5 to 115.5 °C | 98.6% | – | – |
| CCn1c(C(Cc2ccccc2)NS(=O)(=O)c2ccc3c(Cl)cccc3c2)cnc1Oc1ccc(F)cc1 (stereo not shown) [Compound 194] | 172.5 to 174 °C | 93% | ≤ 70 nM | – |
| CCn1c(C(Cc2ccc(C)cc2)NS(=O)(=O)c2ccc(Cl)c(Cl)c2)cnc1Oc1ccc(F)cc1 (stereo not shown) [Compound 196] | 123.5 to 124 °C | 88.9% | – | – |
| CCn1c(C(Cc2ccc(C)cc2)NS(=O)(=O)c2ccc3c(Cl)cccc3c2)cnc1Oc1ccc(F)cc1 (stereo not shown) [Compound 197] | 166 to 167 °C | 95.3% | – | – |
| CCn1c(C(Cc2ccc(F)cc2)NS(=O)(=O)c2ccc(Cl)c(Cl)c2)cnc1Oc1ccc(F)cc1 (stereo not shown) [Compound 199] | 145.5 to 146.5 °C | 97.3% | – | – |
| CCn1c(C(Cc2ccc(F)cc2)NS(=O)(=O)c2ccc3c(Cl)cccc3c2)cnc1Oc1ccc(F)cc1 (stereo not shown) [Compound 200] | 175 to 176 °C | 97.1% | 17 nM | – |
| CCn1c(C(NS(=O)(=O)c2ccc(Cl)c(Cl)c2)c2ccccc2)cnc1Oc1ccc(F)cc1 (stereo not shown) [Compound 201] | 157.5 to 158 °C | – | – | – |
| CCn1c(C(NS(=O)(=O)c2ccc3c(Cl)cccc3c2)c2ccccc2)cnc1Oc1ccc(F)cc1 (stereo not shown) [Compound 202] | 171.5 to 172.5 °C | 69.3% | – | – |
| CCn1c(C(Cc2ccc(Cl)cc2)NS(=O)(=O)c2ccc(Cl)c(Cl)c2)cnc1Oc1ccc(F)cc1 (stereo not shown) [Compound 205] | 155.5 to 156.5 °C | 94.4% | – | – |
| CCn1c(CNS(=O)(=O)c2ccc(Cl)c(Cl)c2)cnc1Oc1ccc(F)cc1 [Compound 210] | 154 to 155 °C | 90.6% | – | – |
| CC(NS(=O)(=O)c1ccc(Cl)c(Cl)c1)c1cnc(Oc2ccc(F)cc2)n1C (stereo not shown) [Compound 211] | 179.5 to 180.5 °C | 92.2% | – | – |
| CC(NS(=O)(=O)c1ccc2c(Cl)cccc2c1)c1cnc(Oc2ccc(F)cc2)n1C (stereo not shown) [Compound 212] | 134 to 135 °C | 92% | – | – |
| CCn1c(C(C)NS(=O)(=O)c2ccc(Cl)c(Cl)c2)cnc1Oc1cc(C)nc(C)c1 (stereo not shown) [Compound 215] | 179 to 180 °C | 100% | – | – |
| CCn1c(C(C)NS(=O)(=O)c2ccc(Cl)c(Cl)c2)cnc1OC1CCCCC1 (stereo not shown) [Compound 216] | 180 to 181 °C | 92% | – | – |
| CCn1c(C(C)NS(=O)(=O)c2ccc(Cl)c(Cl)c2)cnc1Oc1cc(C(F)(F)F)n(C)n1 (stereo not shown) [Compound 217] | 146 to 148 °C | 96.3% | – | – |
| CCOc1ncc(C(C)NS(=O)(=O)c2ccc(Cl)c(Cl)c2)n1CC (stereo not shown) [Compound 219] | 195 to 196 °C | 83.2% | – | – |
| CCCCCCC(NS(=O)(=O)c1ccc(Cl)c(Cl)c1)c1cnc(Oc2ccc(F)cc2)n1CC (stereo not shown) [Compound 220] | 79 to 80 °C | 68.3% | – | – |
| CCn1c(Oc2ccc(F)cc2)nc(-c2ccccc2)c1C(C)NS(=O)(=O)c1ccc(Cl)c(Cl)c1 (stereo not shown) [Compound 227] | 216.5 to 217.5 °C | – | – | – |
| CCCCCCCCCCCCCCCCCCOc1ncc(C(C)NS(=O)(=O)c2ccc(Cl)c(Cl)c2)n1CC (stereo not shown) [Compound 238] | 117 to 118 °C | – | – | – |
| CCn1c(C(C)NS(=O)(=O)c2ccc(Cl)c(Cl)c2)cnc1OC (stereo not shown) [Compound 240] | 199 to 200 °C | – | – | – |
| CCn1c(C(C)NS(=O)(=O)c2ccc(Cl)c(Cl)c2)cnc1OCCCN1CCN(C)CC1 (stereo not shown) [Compound 251] | – | 96.3% | – | – |
| CC[C@@H](NS(=O)(=O)c1ccc(Cl)c(Cl)c1)c1cnc(Oc2ccc(F)cc2)n1CC [Compound 253, (R)-(+)-3,4-Dichloro-N-{1-[3-ethyl-2-(4-fluorophenoxy)-3H-imidazol-4-yl]-propyl}-benzenesulfonamide] | – | 100% | 27.5 nM | – |
| CC[C@H](NS(=O)(=O)c1ccc(Cl)c(Cl)c1)c1cnc(Oc2ccc(F)cc2)n1CC [Compound 254, (S)-(−)-3,4-Dichloro-N-{1-[3-ethyl-2-(4-fluorophenoxy)-3H-imidazol-4-yl]-propyl}-benzenesulfonamide] | – | 68.6% | – | – |
| CCCCCCCCCCCCC/C=C/[C@@H](O)[C@@H](N)COP(=O)(O)O [[^33P]-S1P, Sphingosine-1-phosphate] | – | – | – | 0.15 nM |

Other lines, results leading:

| melting point | inhibition at 10 µM (human Edg-1 (S1P1)) | IC50 (human Edg-1 (S1P1)) | Kd (human Edg-1 (S1P1); human Edg-1 (S1P1) gene transferred HEK-293 membrane fraction) | Structure (SMILES) |
| --- | --- | --- | --- | --- |
| 205.5 to 206 °C | 100% | 3.7 nM | – | CCn1c(C(C)NS(=O)(=O)c2ccc3c(Cl)cccc3c2)cnc1Oc1cccc(N2CCN(C)CC2)c1 (stereo not shown) [Compound 185] |
| 156 to 157 °C | 99.8% | ≤ 70 nM | – | CCn1c(C(C)NS(=O)(=O)c2ccc(Cl)c(Cl)c2)cnc1Oc1ccc(F)cc1 (stereo not shown) [Compound 186] |
| 167 to 169 °C | 101% | 10.9 nM | – | CCn1c(C(C)NS(=O)(=O)c2ccc(Cl)c(Cl)c2)cnc1Oc1cccc(N2CCOCC2)c1 (stereo not shown) [Compound 190] |
| 174 to 175 °C | 96.1% | 20 nM | – | CCn1c(C(C)NS(=O)(=O)c2ccc(Cl)c(Cl)c2)cnc1Oc1ccc(C)nc1 (stereo not shown) [Compound 195] |
| 171 to 172 °C | 97.8% | 10.3 nM | – | CCn1c(C(C)NS(=O)(=O)c2ccc(Cl)c(Cl)c2)cnc1Oc1cccc(N(C)C)c1 (stereo not shown) [Compound 198] |
| 146.5 to 148 °C | 102% | 23.5 nM | – | CCn1c(C(C)NS(=O)(=O)c2ccc(Cl)c(Cl)c2)cnc1Oc1ccc(OC)cc1 (stereo not shown) [Compound 203] |
| 166.5 to 167.5 °C | 95.7% | – | – | CCn1c(C(C)NS(=O)(=O)c2ccc(Cl)c(Cl)c2)cnc1Oc1ccccc1 (stereo not shown) [Compound 204] |
| 172 to 173 °C | 98.5% | – | – | CCn1c(C(C)NS(=O)(=O)c2ccc(Cl)c(Cl)c2)cnc1Oc1ccc2ccccc2c1 (stereo not shown) [Compound 206] |
| 161 to 163.5 °C | 101% | 18.2 nM | – | CCn1c(C(C)NS(=O)(=O)c2ccc(Cl)c(Cl)c2)cnc1Oc1cccc(C2CCN(C)CC2)c1 (stereo not shown) [Compound 207] |
| 169.5 to 170.5 °C | 99.6% | ≤ 15 nM | – | CCn1c(C(C)NS(=O)(=O)c2ccc(Cl)c(Cl)c2)cnc1Oc1cccc(N2CCCCC2)c1 (stereo not shown) [Compound 208] |
| 170 to 171 °C | 98.9% | 42 nM | – | CCn1c(C(C)NS(=O)(=O)c2ccc(Cl)c(Cl)c2)cnc1Oc1cccc(-n2ccnc2)c1 (stereo not shown) [Compound 209] |
| 185.5 to 187.5 °C | 99.6% | 49 nM | – | CCn1c(C(C)NS(=O)(=O)c2ccc(Cl)c(Cl)c2)cnc1Oc1ccc2ccncc2c1 (stereo not shown) [Compound 213] |
| 167 to 168 °C | 102% | ≤ 70 nM | – | CCn1c(C(C)NS(=O)(=O)c2ccc(Cl)c(Cl)c2)cnc1Oc1ccc(OCCN2CCOCC2)cc1 (stereo not shown) [Compound 214] |
| 102.5 to 107.5 °C | 101% | – | – | CCn1c(C(C)NS(=O)(=O)c2ccc(Cl)c(Cl)c2)cnc1Oc1ccc(C)c(C)c1 (stereo not shown) [Compound 218] |
| – | 101% | 20.5 nM | – | CCn1c(C(C)NS(=O)(=O)c2ccc(Cl)c(Cl)c2)cnc1Oc1ccc2cc[nH]c2c1 (stereo not shown) [Compound 250, 3,4-Dichloro-N-{1-[3-ethyl-2-(1H-indol-6-yloxy)-3H-imidazol-4-yl]-ethyl}-benzenesulfonamide] |
